In patent US20070213359A1 (ACADIA Pharmaceuticals Inc., priority 2005, published 2007):
Read-outs that look alike come from different tables or passages of the source.

Molecular target: Ghrelin receptor (Homo sapiens, UniProt Q92847)
Assay: Receptor Selection and Amplification Technology (R-SAT) assay
Format: cell-based
Design: expressed in transfected cells; host or cells: NIH3T3
Conditions: for IC50: '—' not defined (nd used separately), read-out: RSAT pIC50 (converted); for Emax: read-out: RSAT Eff(%)
[1] = negative logarithm of ligand concentration causing 50% inhibition of constitutive receptor response, transfected NIH3T3 cells
[2] = percent inhibition at saturating ligand, normalized to reference ligand Substance P analog = 100%

Sequence of Ghrelin receptor (Q92847 whole entry): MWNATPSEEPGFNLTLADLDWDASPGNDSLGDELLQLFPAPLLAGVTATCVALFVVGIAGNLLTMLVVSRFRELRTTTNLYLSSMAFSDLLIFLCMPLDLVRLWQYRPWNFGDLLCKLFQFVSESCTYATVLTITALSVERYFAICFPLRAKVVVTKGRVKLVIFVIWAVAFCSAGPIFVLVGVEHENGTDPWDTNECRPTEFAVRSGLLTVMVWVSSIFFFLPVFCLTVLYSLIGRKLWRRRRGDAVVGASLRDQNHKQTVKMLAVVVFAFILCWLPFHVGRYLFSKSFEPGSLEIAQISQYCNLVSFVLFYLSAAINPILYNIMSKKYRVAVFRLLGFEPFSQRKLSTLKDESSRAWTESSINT

Row | SMILES | IC50 [1] | Emax [2] | IC50 ([…]) | Emax | RSAT Eff(%)
1 | CC(=O)c1cn(CCCN2C3CCC2CC(CCc2ccccc2)C3)c2c(C)cccc12 (stereo not drawn) | 6.31 nM | 105% | – | – | –
2 | CCCON1CCN(CCCn2cc(C(=O)C(F)(F)F)c3ccccc32)CC1 | 251 nM | 99% | – | – | –
3 | COc1cccc2c(C(=O)NCC(C)C)cn(CCCN3C4CCC3CC(CCc3ccc(Cl)cc3)C4)c12 (stereo not drawn) | – | – | 63.1 nM | 85% | –
4 | CC(=O)c1cn(CCCCN2C3CCC2CC(Oc2ccc(Cl)cc2)C3)c2ccccc12 (stereo not drawn) | 3160 nM | 119% | – | – | –
5 | O=C(c1cn(CCCN2CCC(CCOc3ccc(Cl)cc3)CC2)c2ncccc12)C(F)(F)F | – | 37% | – | – | –
6 | CC(=O)c1cn(CCCN2CCC(c3nc(-c4cccnc4)no3)CC2)c2ncccc12 | 20000 nM | 55% | – | – | –
7 | COc1cccc2c(C(=O)C3CC3)cn(CCCN3CCCN(CCc4ccccc4)CC3)c12 | – | – | 1.26 nM | 100% | –
8 | CC(=O)c1cn(CCCN2CCC(N3C(=O)Cc4ccccc43)CC2)c2c(C)cccc12 | – | – | 12600 nM | – | 69%
9 | COc1cccc2c(C(=O)NCC(C)C)cn(CCCN3C4CCC3CC(CC(=O)c3ccc(Cl)cc3)C4)c12 (stereo not drawn) | – | – | 126 nM | 128% | –
10 | CC(=O)CCc1cn(CCCN2CCC(Oc3ccc(F)cc3)CC2)c2ccccc12 | 1260 nM | 80% | – | – | –
11 | COc1cccc2c(C#N)cn(CCCN3CCC4(CC3)CC(=O)c3ccccc3O4)c12 | – | 41% | – | – | –
12 | CC(=O)c1c(C)n(CCCN2CCCN(CCc3ccccc3)CC2)c2c(Br)cccc12 | – | – | 501 nM | 42% | –
13 | CC(=O)c1cn(CCCNC2Cc3ccccc3C2)c2c(C#N)cccc12 | – | – | – | 6% | –
14 | CC(CN1CCC2(CC1)CC(=O)c1ccccc1O2)Cn1cc(C(=O)C(F)(F)F)c2cccnc21 (stereo not drawn) | – | 26% | – | – | –
15 | CCCCC(=O)c1cn(CCCN2C3CCC2CC(OCC2CC2)C3)c2ccc(OC)cc12 (stereo not drawn) | 200 nM | – | – | 132% | –
16 | CC(=O)c1cn(CCCN2CCN(C(C)c3ccccc3)CC2)c2cc(Br)ccc12 (stereo not drawn) | 251 nM | 93% | – | – | –
17 | COc1ccc2c(c1)c(C(C)=O)cn2CCCN1CCC(C(=O)c2ccccc2)CC1 | 1000 nM | 72% | – | – | –
18 | CCCCC(=O)c1cn(CCCN2CCC(Oc3ccc(F)cc3)CC2)c2ccc(OC)cc12 | 100 nM | – | – | 91% | –
19 | COc1cccc2c(C(=O)NCc3cccc(Cl)c3)cn(CCCN3CCC(c4nc(-c5cccnc5)no4)CC3)c12 | – | – | 20 nM | 103% | –
20 | CCCOC1CCN(CC(C)Cn2c(=O)sc3ccccc32)CC1 (stereo not drawn) | 2510 nM | 71% | – | – | –

Row | SMILES | IC50 [1] | Emax [2] | IC50 ([…]) | Emax | RSAT Eff(%)
21 | COc1cccc2c(C(=O)Cc3ccccc3)cn(CCCN3CCN(CCOc4ccc(Cl)c5ccccc45)CC3)c12 | – | – | – | 46% | –
22 | O=C(c1cn(CCCN2CCC(c3nc(-c4ccncc4)no3)CC2)c2ncccc12)C(F)(F)F | – | 31% | – | – | –
23 | CCC(=O)c1cn(CCCN2CCC(c3nc4ccccc4s3)CC2)c2ccccc12 | 158 nM | 104% | – | – | –
24 | COc1cccc2c(C(=O)C3CC3)cn(CCCN3CCN(CCOc4ccccc4)CC3)c12 | – | – | 7.94 nM | 94% | –
25 | COc1cccc2c(C(=O)Cc3ccccc3)cn(CCCN3CCN(c4ncc(C(F)(F)F)cc4Cl)CC3)c12 | – | – | 7.94 nM | 95% | –
26 | CC(=O)c1cn(CC(C)CN2CCC(O)(Cc3ccccc3)CC2)c2ccccc12 (stereo not drawn) | – | – | – | -3% | –
27 | COc1ccc2c(C(C)=O)cn(CCCN3CCC(c4ccccc4OC)CC3)c2c1 | – | – | 251 nM | 72% | –
28 | COc1cccc2c(C#N)cn(CCCN3CCN(c4ncc(C(F)(F)F)cc4Cl)CC3)c12 | 398 nM | 97% | – | – | –
29 | CC(=O)c1cn(CCCN2CCC(Cc3ccccc3Cl)C2)c2c(Cl)cccc12 (stereo not drawn) | – | – | – | 37% | –
30 | CC(=O)c1c(C)n(CCCN2CCN(CCOc3ccccc3)CC2)c2c(Br)cccc12 | 1260 nM | 57% | – | – | –
31 | COc1cccc2c(C(=O)c3ccccc3)cn(CCCN3CCC(c4nc(-c5ccncc5)no4)CC3)c12 | – | – | 25.1 nM | 98% | –
32 | CC(=O)c1cn(CCCN2CCC(CCOc3ccc(Cl)cc3)CC2)c2c(C#N)cccc12 | – | – | – | 27% | –
33 | CCCCC(=O)c1cn(CCCN2CCC(OCCC)CC2)c2ccc(OC)cc12 | 126 nM | 114% | – | – | –
34 | COc1cccc2c(C(C)=O)cn(CCCN3CCC4CCCCC4C3)c12 (stereo not drawn) | 1000 nM | 69% | – | – | –
35 | COc1cccc2c(C(=O)C3CC3)cn(CCCN3C4CCC3CC(Oc3ccc(F)cc3)C4)c12 (stereo not drawn) | – | – | 63.1 nM | 131% | –
36 | CCCCC1CCN(CCCn2cc(C(C)=O)c3ccc(Br)cc32)CC1 | 3160 nM | 93% | – | – | –
37 | COc1cccc2c(C(=O)NCc3cccc(Cl)c3)cn(CCCN3CCCN(Cc4ccc(F)cc4)CC3)c12 | – | – | 3.16 nM | 113% | –
38 | CC(=O)c1cn(CCCN2CCN(CCOc3ccccc3)CC2)c2c(Br)cccc12 | 501 nM | 91% | – | – | –
39 | COc1cccc2c(C(=O)NCc3cccc(C)c3)cn(CCCN3C4CCC3CC(CCc3ccccc3)C4)c12 (stereo not drawn) | – | – | 10 nM | 89% | –
40 | CC(=O)c1cn(CCCN2CCC(c3nc(-c4ccncc4)no3)CC2)c2c(C)cccc12 | 31.6 nM | 137% | – | – | –

Row | SMILES | IC50 [1] | Emax [2] | IC50 ([…]) | Emax | RSAT Eff(%)
41 | CCCCC(=O)c1cn(CCCN2CCC(c3ccccc3OC)CC2)c2ccc(OC)cc12 | 316 nM | 101% | – | – | –
42 | CC(C)CNC(=O)c1cn(CCCN2CCC(Oc3ccc(F)cc3)CC2)c2ccccc12 | 501 nM | – | – | 94% | –
43 | CCc1cccc2c(C(C)=O)cn(CCCN3C4CCC3CC(Oc3ccccc3Cl)C4)c12 (stereo not drawn) | 100 nM | 101% | – | – | –
44 | CC(=O)c1cn(CCCN2CCC3(CC2)CC(=O)c2ccccc2O3)c2c(C)cccc12 | 316 nM | 71% | – | – | –
45 | COc1ccc2c(C(C)=O)cn(CCCN3CCC(C(C)c4ccccc4)CC3)c2c1 (stereo not drawn) | 3160 nM | 73% | – | – | –
46 | CCCCC(=O)c1cn(CCCN2C3CCC2CC(Oc2ccc(Cl)cc2)C3)c2ccc(OC)cc12 (stereo not drawn) | 126 nM | 110% | – | – | –
47 | COc1cccc2c(C(=O)c3ccccc3)cn(CCCN3C4CCC3CC(CCc3ccc(Cl)cc3)C4)c12 (stereo not drawn) | – | – | 15.8 nM | 94% | –
48 | COc1ccc2c(c1)c(C(C)=O)cn2CCCN1CCN(C(C)c2ccccc2)CC1 (stereo not drawn) | 501 nM | 77% | – | – | –
49 | CCc1cccc2c(C(C)=O)cn(CCCN3CCCC(Oc4ccc(Cl)cc4)C3)c12 (stereo not drawn) | – | – | – | 13% | –
50 | CC(C)CC(=O)c1cn(CCCN2CCC(C(=O)c3ccccc3)CC2)c2ccccc12 | 2000 nM | 67% | – | – | –
51 | COc1cccc2c(C(=O)NCC(C)C)cn(CCCN3CCC4(CC3)CC(=O)c3ccccc3O4)c12 | – | – | 12.6 nM | 115% | –
52 | CC(=O)CCc1cn(CCCN2CCC(c3nc4ccccc4s3)CC2)c2ccccc12 | 2510 nM | 84% | – | – | –
53 | COc1cccc2c(C(C)=O)cn(CC(C)CN3CCC4(CC3)CC(=O)c3ccccc3O4)c12 (stereo not drawn) | – | – | – | 55% | –
54 | CC(=O)c1cn(CCCN2CCC(c3nc(-c4cccnc4)no3)CC2)c2c(Br)cccc12 | 39.8 nM | 119% | – | – | –
55 | COc1cccc2c(C(=O)NCc3cccc(Cl)c3)cn(CCCN3CCCC(Cc4ccccc4Cl)C3)c12 (stereo not drawn) | – | – | 2000 nM | 47% | –
56 | CCC(=O)c1cn(CCCN2C3CCC2CC(O)(c2ccc(F)cc2)C3)c2ccccc12 (stereo not drawn) | – | – | – | 18% | –
57 | COc1cccc2c(C(=O)NCc3cccc(Cl)c3)cn(CCCN3CCCC(Oc4ccc(Cl)cc4)C3)c12 (stereo not drawn) | – | – | – | 31% | –
58 | CCCCC1CCN(CCCn2cc(C(C)=O)c3ccc(OC)cc32)CC1 | 631 nM | 63% | – | – | –
59 | CC(=O)c1cn(CCCN2CCC(C(=O)c3ccccc3)CC2)c2ccccc12 | 5010 nM | 64% | – | – | –
